From patent US20160280788A1, “USE OF ANTIBODIES AGAINST ICAM-1 IN THE TREATMENT OF PATIENTS WITH RELAPSED CANCER” (BioInvent International AB, priority 2010, published 2016)

Tests used:
[1] = system: HUVEC and HMVEC endothelial cells; experiment: PCD in normal endothelial cells; assay type: cell-based; settings: resting or activated (IFN-γ) cells
Protocol: Target cells were seeded in 96-well culture plates at a density of 2×10^6 cells/mL culture medium. Titrated concentrations of IgG1 B11 or different negative and positive control antibodies were added to the cells, in the absence or presence of anti-human Fab fragment (Jackson ImmunoResearch) for cross-linking. The cells were then incubated for 16 hours at 37° C. in a humidified atmosphere of 5% CO2. The cells were harvested and stained for Annexin V-488/Propidium Iodide (Invitrogen, Sweden) and analysed using flow cytometer (FACS Calibur, BD Bioscience).

[2] = system: ICAM-1 expressing tumor cell lines; experiment: Complement-dependent cytotoxicity in tumor cell lines; assay type: cell-based; settings: panel of ICAM-1 expressing tumor cell lines; human serum
Protocol: Target cells were harvested and incubated in RPMI medium with antibodies at 5 μg/mL or at titrated concentrations between 0.01-100 μg/mL for 60 min on ice. Cells were thereafter washed and resuspended in cold medium before dispension into flow cytometry tubes. Treatments were performed in triplicates. Human serum, normal or heat-inactivated, (Sigma, Sweden) was added to tubes and the samples were incubated for 2 h at 37° C. After completed incubation ToPo-Pro-3 was added at a final concentration of 0.3 μM and cells were analyzed for membrane permeabilization using flow cytometry.

[3] = system: ARH-77 cells; experiment: Subcutaneous scid/ARH-77 xenograft, prophylactic model; settings: 20 mg/kg twice weekly i.p., commencing one day after tumor cell inoculation
Protocol: Tumor cells were injected subcutaneously into the left flank of SCID mice. Mice received twice-weekly intraperitoneal injections with BI-505, control antibody or rituximab at doses of 20, 2 and/or 0.2 mg/kg commencing one day after tumor cell inoculation. There were 8 to 10 animals per treatment group. […] Statistical significance was calculated relative to control antibody treatment using Kruskal-Wallis Test (Nonparametric ANOVA) with Dunn's Multiple Comparisons Test (tumor volume) or the log-rank test (mouse survival) using Graphpad Instat or Prism software, respectively. Statistical significance was considered for *p<0.05, **p<0.01, and ***p<0.001.
Tumor cells were injected subcutaneously into the left flank of SCID mice. Mice received twice-weekly intraperitoneal injections with BI-505 at doses of 0.02-20 mg/kg commencing day after tumor cell inoculation. There were 8-10 animals per treatment group. […] Statistical significance was calculated relative to control antibody treatment using Kruskal-Wallis Test (Nonparametric ANOVA) with Dunn's Multiple Comparisons Test (tumor volume) or the log-rank test (mouse survival) using Graphpad Instat or Prism software, respectively. Statistical significance was considered for *p<0.05, **p<0.01, and ***p<0.001. Graphs illustrate representative experiments out of several performed.
(FIG. 7A) ARH-77 cells were injected subcutaneously into the left flank of SCID mice (n=8 per group). Mice were treated with the different BI-505 isotypes twice weekly. […] Statistical significance was calculated relative to control antibody treatment using Kruskal-Wallis Test (Nonparametric ANOVA) with Dunn's Multiple Comparisons Test. Statistical significance was considered for *p<0.05, **p<0.01, and ***p<0.001.
Mice were anaesthetized with a mixture of sevofluran and oxygen prior to myeloma cell inoculation and 1-5×10^6 myeloma cells were then subcutaneously injected in a volume of 100 μl into the left flank.

[4] = system: ARH-77 tumors; experiment: Subcutaneous scid/ARH-77 xenograft, established (palpable tumor) model; settings: IgG B11 even at 0.2 mg/kg (100-fold lower dose than rituximab)
Protocol: Mice were anaesthetized with a mixture of sevofluran and oxygen prior to myeloma cell inoculation and 1-5×10^6 myeloma cells were then subcutaneously injected in a volume of 100 μl into the left flank. Treatment with antibodies by intraperitonial (i.p.) injections was started either the day after cell inoculation (prophylactic model) or when tumors reached a size of approximately 100 mm^3 (established model). Antibodies were administrated in PBS in a total volume of 200 μL. Treatment with PBS or isotype control was used as control. Tumors were measured with a digital calliper and the tumor volumes were calculated according to formula: width^2×length×0.52. Animals were sacrificed when the tumor sizes reached the ethical limit of 1.5 cm. Surviving mice were sacrificed after a maximum of 5 months. Blood samples collected from the vena cava were centrifuged at 2500 g for 15 min to obtain serum and the samples were stored at −20° C. Tumors were removed for immunohistochemistry, snap frozen and were kept at −85° C.

[5] = system: ICAM-1 on RPMI-8226 tumor cells; experiment: ICAM-1 expression on MM cells isolated from treated mice (flow cytometry); assay type: in vivo, SCID mice; settings: disseminated RPMI-8226 model, cells collected at termination
Protocol: Organs for FACS analysis were collected at scarification of mice, and cells from tissues were prepared by mechanistic dissociation and dispase/collagenase enzymatic digestion (Gibco, France). Cells were stained with anti-human CD38 antibody (PerCP-Cy5, Becton Dickinson), an anti-mouse CD45 (PE, Becton Dickinson) and human ICAM-1 (BI-505 IgG1 AF647, BioInvent) and incubated in the dark for 15 min at room temperature. After the incubation, cells were washed twice and the surface fluorescence of cells was analyzed with a flow cytometer apparatus (LSRII) at the Flow Cytometry Facility of the University of Burgundy.
The health status and behavior of mice was recorded every day and body weight of mice was recorded twice a week. […] Upon termination, bone marrow, spinal cord, adrenal glands and kidneys were collected and examined for ICAM-1 expression on tumor cells. To distinguish cells of human versus murine origin, an anti-mouse CD45 mAb was used CD45. […] In addition, cells were stained with AF647 conjugated anti ICAM-1 mAb and thereafter analyzed in a FACS LSRII. Bone marrow was mechanically dissociated to a single cell suspension whereas adrenal glands, kidneys and spinal cord cells were prepared using a combination of mechanistic dissociation and dispase/collagenase digestion (Gibco, France). Prior to the experiment, dispase and collagenase treatments were shown not to effect ICAM-1 levels on MM cell lines.

[6] = system: ARH-77 cells; experiment: Disseminated scid/ARH-77 model of multiple myeloma; assay type: in vivo, scid mice; settings: i.v. on Days 7, 10, 13, 16; antibody 2 mg/kg, bortezomib 0.5 mg/kg; vs control
Protocol: ARH-77 cells or RPMI-8226 were injected intraveniously into the SCID mice. (FIG. 6A) ARH-77 model. Animals received intravenous injections with antibody at 2 mg/kg or bortezomib (Velcade) at 0.5 mg/kg on Days 7, 10, 13, and 16 (as indicated by arrows in the graph). (FIG. 6B) RPMI-8226-model. BI-505 or control mAb was administered i.v at 2 mg/kg, twice weekly for 8 weeks, bortezomid, at 1 mg/kg, once weekly for 8 weeks, lenalidomide p.o with 2 mg/kg for 2 cycles consisting of 5 days of treatment and 2 days of wash out, melphalan i.v at 3 mg/kg, once weekly for 8 weeks, and dexamethasone (DXH) at 6 mg/kg/inj 3 times/week for 2 consecutive weeks. There were 6-10 mice per treatment group. Statistical significance was calculated using Log-rank Graphpad Prism software and determined at ***p<0.001. (FIG. 6C) To study the ICAM-1 level on human cells, the cells from different organs were stained and gated for CD38+/mCD45−/BI-505+. Left panel indicates the percentage of BI-505 positive cells in CD38+/mCD45 population and right panel the mean fluorescent intensity of the positive cells.
The anti-myeloma effect of BI-505 was examined in a disseminated model of multiple myeloma. The early and advanced disseminated model of multiple myeloma was performed at Oncodesign, Dijon, France. Briefly: 1×10^6 (early) or 5×10^6 (advanced) ARH-77 tumor cells in 200 μL of RPMI 1640 were injected intravenously (i.v) into the caudal vein of female scid mice (D0). Tumor cell injections were performed twenty four to forty eight hours after a whole body irradiation of mice (1.8 Gy, ^60Co, INRA, BRETENNIERES). The treatment was started at D5 (RPMI-8226 model) or D7 ([…] model) except alkeran which was administered at D10. B11 or control mAb was administered i.v. at 2 mg/kg, twice weekly for 8 weeks, bortezomib, at 1 mg/kg, once weekly for 8 weeks, lenalidomide p.o with 2 mg/kg for 2 cycles consisting of 5 days of treatment and 2 days of wash out, melphalan i.v. at 3 mg/kg, once weekly for 8 weeks and dexamethasone at 6 mg/kg, injected 2 consecutive weeks.
The disseminated model of scid/ARH-77 is a well-established experimental model that resembles human multiple myeloma disease progression and disease manifestation in many respects (33). We utilized this model to further characterize IgG B11 anti-myeloma activity (FIG. 6A). Intravenous injection of irradiated scid mice with 1×10^6 ARH-77 cells was previously shown to result in their dissemination and establishment in mouse bone-marrow, and resulting osteolytic bone-lesions and hypercalcemia, and ultimately, in animal paralysis or difficulty of breathing at which time animals were immediately sacrificed. […]

[7] = Mouse serum antibody levels by ELISA at end of xenograft experiment; assay type: in vivo; settings: dose 2 mg/kg; mouse serum at end of experimentation
Protocol: We next performed a dose-titration experiment to establish IgG B11 in vivo potency and the minimal dose achieving maximal anti-tumor activity, using the scid/ARH-77 model system. […] Mouse serum antibody trough concentrations were determined by ELISA at the end of experimentation. Trough antibody concentrations were then plotted against percent of maximal in vivo anti-tumour activity, and against percent of maximal ICAM-1 receptor occupancy and tumour cell PCD at corresponding antibody concentrations in vitro (FIGS. 3C, 3D, 3E, 3F and 3G). Strikingly, a near perfect correlation between antibody concentration and in vitro tumour cell receptor occupancy, in vitro tumor cell PCD, and in vivo anti-tumour activity was observed, consistent with ICAM-1 dependent direct cell cytotoxicity underlying in vivo anti-tumour activity.

[8] = biological target: T1, mouse FcγRIV (Mus musculus, UniProt A0A0B4J1G0); experiment: Biacore binding of BI-505 isotype variants to mouse FcγRIV
T1 construct: made in house; host or cells: HEK293E (transient)
T1 sequence (A0A0B4J1G0 21-249): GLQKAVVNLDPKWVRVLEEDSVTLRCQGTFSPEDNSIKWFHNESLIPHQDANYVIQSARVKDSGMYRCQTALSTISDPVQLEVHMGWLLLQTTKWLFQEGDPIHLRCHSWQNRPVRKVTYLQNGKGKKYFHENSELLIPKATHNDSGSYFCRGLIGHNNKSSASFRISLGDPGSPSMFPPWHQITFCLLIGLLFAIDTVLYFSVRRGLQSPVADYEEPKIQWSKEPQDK
Protocol: (§1) His-tagged human FcγRIIIa or mouse FcγRIV were expressed transient in adherent HEK293E cells, purified using Ni-NTA chromatography and characterized using SDS-PAGE and/or Biacore. Surface plasmon resonance (SPR) measurements were perfomed using a Biacore 3000 instrument. Goat α-human-F(ab)′2 F(ab)′2 fragment (Jackson laboratories) was immobilised with a CM-5 chip using a standard amine coupling protocol. IgG1 B11, Iga4 B11, or 297Q B11 were diluted to 15 and 60 μg/mL respectively and added to the surface at […] for 3 min. His tagged human FcγRIIIa or mouse FcγRIV were pre-incubated with an α-HIS antibody (R&D Systems) at a 2:1 molar ratio before addition to the chip surface, […], 1 min. After each cycle the surface was regenerated twice with glycine buffer pH 1.7.

[9] = biological target: T2, human FcγRIIIa (Homo sapiens, UniProt P08637); experiment: Biacore binding of BI-505 isotype variants to human FcγRIIIa
T2 construct: made in house; host or cells: HEK293E (transient)
Protocol: as §1

[10] = system: B lymphoma cell line (CL-01); experiment: ADCC of tumor cells with human NK effector cells; assay type: cell-based; settings: human Natural Killer effector cells
Description: Buffy coats from human donors (ordered through Blodcentralen, Lund) were used to isolate peripheral blood mononuclear cells (PBMCs), and subsequently NK cells. Briefly, peripheral blood components were separated using Ficoll Paque PLUS (Amersham Biosciences, Sweden) in LeucoSep tubes (Greiner Bio-One). The PBMC fraction was removed and thoroughly washed in ice-cold DPBS (Invitrogen), before magnetic labeling and separation of the NK cell population using positive or negative NK cell isolation kits and MACS LS columns (Miltenyi Biotec). The purity of the obtained NK cell fractions was analyzed using flow cytometry, after staining with α-CD56 antibodies (BD Biosciences). Target cells were harvested, and incubated in medium with or without the respective antibodies (2 μg/mL) for 60 min on ice. Cells were thereafter washed and resuspended in cold medium before dispension into FACS tubes. Subsequently, isolated NK cells were diluted in ADCC medium and dispensed together with the respective antibody-coated target cells at varying effector/target cell ratios (40:1, 20:1, 5:1 and 1:1). All experiments were performed in triplicates. After completed incubation ToPo-Pro-3 dye and counting beads (Invitrogen) were added and cells were analyzed for membrane permeabilization using flow cytometry.

T2 sequence (P08637 17-254): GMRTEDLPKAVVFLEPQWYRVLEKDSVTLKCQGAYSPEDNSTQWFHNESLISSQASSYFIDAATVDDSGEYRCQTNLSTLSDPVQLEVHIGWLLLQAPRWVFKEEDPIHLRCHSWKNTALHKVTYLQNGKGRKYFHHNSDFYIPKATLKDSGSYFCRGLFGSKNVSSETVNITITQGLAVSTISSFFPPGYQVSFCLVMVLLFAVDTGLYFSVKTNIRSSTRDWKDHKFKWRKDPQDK

Molecule: CC(=O)O[C@H]1C(=O)[C@@]2(C)[C@H]([C@H](OC(=O)c3ccccc3)[C@]3(O)C[C@H](OC(=O)[C@H](O)[C@@H](NC(=O)c4ccccc4)c4ccccc4)C(C)=C1C3(C)C)[C@]1(OC(C)=O)CO[C@@H]1C[C@@H]2O [paclitaxel, reference compound]
- PCD induction in normal endothelial cells [1]: induced significant endothelial cell

Molecule: rituximab [reference compound]
- induction of CDC [2]: effectively induced CDC
- tumor growth [3]: significant anti-tumor activity albeit less efficaciously
- animal survival [4]: incapable of reducing tumor growth or promoting animal survival
- tumor growth [4]: incapable of reducing tumor growth

Molecule: Nc1cccc2c1CN(C1CCC(=O)NC1=O)C2=O (stereo not drawn) [Revlimid, Lenalidomide]
- ICAM-1 expression on tumor cells collected from treated mice [5]: unchanged, high levels

Molecule: CC(C)C[C@H](NC(=O)[C@H](Cc1ccccc1)NC(=O)c1cnccn1)B(O)O [bortezomib, reference compound]
- animal survival [6]: did not significantly enhance animal survival
- time to symptomatic disease onset [6]: insignificantly delayed disease onset
- ICAM-1 expression on tumor cells collected from treated mice [5]: unchanged, high levels

Molecule: N[C@@H](Cc1ccc(N(CCCl)CCCl)cc1)C(=O)O [AIKERAN, Melphalan]
- ICAM-1 expression on tumor cells collected from treated mice [5]: unchanged, high levels

B1: IgG4: human IgG4 isotype switch variant of B11 (antibody, V domains shown)
VH: EVQLLESGGGLVQPGGSLRLSCAASGFTFSNAWMSWVRQAPGKGLEWVAFIWYDGSNKYYADSVKGRFTISRDNSKNTLYLQMNSLRAEDTAVYYCARYSGWYFDYWGQGTLVTVSS
VL: QSVLTQPPSASGTPGQRVTISCTGSSSNIGAGYDVHWYQQLPGTAPKLLIYDNNNRPSGVPDRFSGSKSGTSASLAISGLRSEDEADYYCQSYDSSLSAWLFGGGTKLTVLG
- In vivo IgG Levels (serum antibody titers) [7]: 13 ± 3.1 µg/mL
- binding to murine FcγRIV [8]: but not IgG4 or N297Q-mutant, showed strong binding
- binding to human FcγRIIIa [9]: did not bind to human FcγRIIIa
- ADCC of target tumor cells [10]: did not mediate ADCC

B2: N297Q-mutant: FcγR-binding deficient mutant IgG1 isotype switch variant of B11 (antibody, V domains shown)
VH: B1 VH
VL: B1 VL
- In vivo IgG Levels (serum antibody titers) [7]: 9.6 ± 3. μg/mL
- binding to murine FcγRIV [8]: but not IgG4 or N297Q-mutant, showed strong binding
- binding to human FcγRIIIa [9]: did not bind to human FcγRIIIa
- ADCC of target tumor cells [10]: did not mediate ADCC
